In US20230117034A1, “PYRAZOLOTRIAZINES” (Bayer Aktiengesellschaft, priority 2019, published 2023):

Legend:
CDK9/CycT1 = biological target: T1, CDK9/CycT1 (Homo sapiens, UniProt P50750); test: CDK9/CycT1 high ATP kinase assay (TR-FRET, 2 mM ATP); assay type: biochemical; conditions: 2 mM ATP (high ATP); median; read-out: CDK9/CyclinT1, 2 mM ATP (high ATP), IC50 (median)
T1 construct: Recombinant full-length His-tagged human CDK9 and CycT1; purchased Life Technologies PV4131; host or cells: insect cells
T1 sequence (P50750 whole entry): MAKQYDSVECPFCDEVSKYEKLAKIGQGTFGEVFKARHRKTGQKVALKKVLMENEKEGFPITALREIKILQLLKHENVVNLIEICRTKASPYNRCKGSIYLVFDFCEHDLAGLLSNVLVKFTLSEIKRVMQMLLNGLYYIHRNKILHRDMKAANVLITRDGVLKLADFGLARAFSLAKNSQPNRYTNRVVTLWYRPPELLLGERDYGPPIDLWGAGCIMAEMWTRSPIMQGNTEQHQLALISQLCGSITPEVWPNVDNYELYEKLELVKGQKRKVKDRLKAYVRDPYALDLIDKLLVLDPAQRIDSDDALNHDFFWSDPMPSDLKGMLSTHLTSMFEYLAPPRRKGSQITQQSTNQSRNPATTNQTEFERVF
T1 sequence (O60563 whole entry partner): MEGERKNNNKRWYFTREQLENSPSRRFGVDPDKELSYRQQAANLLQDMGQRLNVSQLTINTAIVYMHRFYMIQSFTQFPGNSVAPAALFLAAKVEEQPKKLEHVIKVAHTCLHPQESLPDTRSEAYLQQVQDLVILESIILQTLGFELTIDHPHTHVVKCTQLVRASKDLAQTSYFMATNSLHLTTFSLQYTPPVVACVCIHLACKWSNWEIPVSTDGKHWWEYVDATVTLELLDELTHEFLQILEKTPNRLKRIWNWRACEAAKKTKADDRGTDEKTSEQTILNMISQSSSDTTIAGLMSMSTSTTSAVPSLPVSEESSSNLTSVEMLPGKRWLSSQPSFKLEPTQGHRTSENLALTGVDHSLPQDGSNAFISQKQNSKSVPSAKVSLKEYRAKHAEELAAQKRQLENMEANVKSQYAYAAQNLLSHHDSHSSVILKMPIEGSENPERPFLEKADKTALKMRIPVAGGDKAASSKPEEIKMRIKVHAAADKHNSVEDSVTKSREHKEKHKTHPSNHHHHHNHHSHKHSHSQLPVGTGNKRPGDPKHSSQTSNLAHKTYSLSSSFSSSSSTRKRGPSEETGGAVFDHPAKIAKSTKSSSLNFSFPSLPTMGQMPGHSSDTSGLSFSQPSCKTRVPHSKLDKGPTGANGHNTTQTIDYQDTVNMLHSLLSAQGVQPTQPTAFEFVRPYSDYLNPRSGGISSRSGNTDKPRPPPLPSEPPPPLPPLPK
Method in brief: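 Full-length His-tagged human CDK9/CycT1 (insect cell, ~0.5 μg/mL) preincubated 15 min at 22 °C with compound in Tris pH 8.0, MgCl2, DTT buffer before reaction with biotinylated peptide substrate at high ATP (2 mM).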

[1] = test system: BRCA1 mRNA expression in MDA-MB-231 cells; test: qRT-PCR assay: BRCA1 mRNA expression in MDA-MB-231; assay type: cell-based, human; conditions: Homo sapiens, MDA-MB-231, Inhibition of BRCA1 mRNA expression in MDA-MB-231 cells; median; read-out: RTqPCR-MDA-MB-231, IC50, BRCA1 (median)
Method in brief: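 GAPDH-normalised RT-qPCR measures the transcript after 24 h continuous compound treatment of cells seeded at 200,000/well one day earlier.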

[2] = test system: MDA-MB-231, human breast cancer cells; test: Proliferation assay MDA-MB-231 (crystal violet, 4 days); assay type: cell-based; conditions: Homo sapiens, MDA-MB-231, 96 h, MDA-MB-231 cells, median, read-out: Prolif-MDA MB-231, IC50-[mol/l] (median)
Method in brief: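 Following a 24 h attachment in 10% fetal calf serum medium, cells receive test substance over 0.01-10 µmol/L for 4 days. Dye retained by fixed cells is eluted and read at 595 nm; cell number change is referenced to day-0 and untreated wells.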

SMILES | IC50 (CDK9/CycT1) | IC50 [1] | IC50 [2]
CN(CC(C)(C)O)c1nc(NCc2nc3c(F)c(F)ccc3[nH]2)n2ncc(C(F)(F)F)c2n1 [Example 402, 1-{[4-{[(4,5-difluoro-1H-benzimidazol-2-yl)methyl]amino}-8-(trifluoromethyl)pyrazolo[1,5-a][1,3,5]triazin-2-yl](methyl)amino}-2-methylpropan-2-ol] | 5400 nM | 3.81 nM | 8.56 nM
Cc1cnn2c(NCc3nc4ccccc4[nH]3)nc(N(C)CC(C)(C)O)nc12 [Example 397, 1-[(4-{[(1H-benzimidazol-2-yl)methyl]amino}-8-methylpyrazolo[1,5-a][1,3,5]triazin-2-yl)(methyl)amino]-2-methylpropan-2-ol] | > 20000 nM | – | 399 nM
CC(C)COc1nc(NCc2nc3ccccc3[nH]2)n2ncc(Br)c2n1 [Example 409, N-[(1H-benzimidazol-2-yl)methyl]-8-bromo-2-(2-methylpropoxy)pyrazolo[1,5-a][1,3,5]triazin-4-amine] | > 20000 nM | – | 343 nM
Brc1cnn2c(NCc3nc4ccccc4[nH]3)nc(OC3CCOCC3)nc12 [Example 405, N-[(1H-benzimidazol-2-yl)methyl]-8-bromo-2-[(oxan-4-yl)oxy]pyrazolo[1,5-a][1,3,5]triazin-4-amine] | > 20000 nM | – | 439 nM
Cc1cnn2c(NCc3nc4ccccc4[nH]3)nc(N3CCOCC3)nc12 [Example 393, N-[(1H-benzimidazol-2-yl)methyl]-8-methyl-2-(morpholin-4-yl)pyrazolo[1,5-a][1,3,5]triazin-4-amine] | > 20000 nM | – | 120 nM
Cc1cnn2c(NCc3nc4ccccc4[nH]3)nc(N3CCN(C)CC3)nc12 [Example 396, N-[(1H-benzimidazol-2-yl)methyl]-8-methyl-2-(4-methylpiperazin-1-yl)pyrazolo[1,5-a][1,3,5]triazin-4-amine] | > 20000 nM | – | 157 nM
Brc1cnn2c(NCc3nc4ccccc4[nH]3)nc(OCCN3CCCC3)nc12 [Example 404, N-[(1H-benzimidazol-2-yl)methyl]-8-bromo-2-[2-(pyrrolidin-1-yl)ethoxy]pyrazolo[1,5-a][1,3,5]triazin-4-amine] | > 20000 nM | – | 1840 nM
CC(C)(O)COc1nc(NCc2nc3ccccc3[nH]2)n2ncc(Br)c2n1 [Example 398, 1-[(4-{[(1H-benzimidazol-2-yl)methyl]amino}-8-bromopyrazolo[1,5-a][1,3,5]triazin-2-yl)oxy]-2-methylpropan-2-ol] | > 20000 nM | – | 59.2 nM
Brc1cnn2c(NCc3nc4ccccc4[nH]3)nc(OC3CCCCC3)nc12 [Example 406, N-[(1H-benzimidazol-2-yl)methyl]-8-bromo-2-(cyclohexyloxy)pyrazolo[1,5-a][1,3,5]triazin-4-amine] | > 20000 nM | – | 283 nM
COC(C)(C)COc1nc(NCc2nc3ccccc3[nH]2)n2ncc(Br)c2n1 [Example 403, N-[(1H-benzimidazol-2-yl)methyl]-8-bromo-2-(2-methoxy-2-methylpropoxy)pyrazolo[1,5-a][1,3,5]triazin-4-amine] | > 20000 nM | – | 524 nM
Cc1cnn2c(NCc3nc4ccccc4[nH]3)nc(N3CC4CCC(C3)N4)nc12 [Example 401, N-[(1H-benzimidazol-2-yl)methyl]-2-(3,8-diazabicyclo[3.2.1]octan-3-yl)-8-methylpyrazolo[1,5-a][1,3,5]triazin-4-amine] | > 20000 nM | – | 132 nM
Brc1cnn2c(NCc3nc4ccccc4[nH]3)nc(OCC3CC3)nc12 [Example 408, N-[(1H-benzimidazol-2-yl)methyl]-8-bromo-2-(cyclopropylmethoxy)pyrazolo[1,5-a][1,3,5]triazin-4-amine] | > 20000 nM | – | 741 nM
COc1cccc2[nH]c(CNc3nc(N4CCOCC4)nc4c(-c5nccs5)cnn34)nc12 [Example 414, N-[(4-methoxy-1H-benzimidazol-2-yl)methyl]-2-(morpholin-4-yl)-8-(1,3-thiazol-2-yl)pyrazolo [1,5-a][1,3,5]triazin-4-amine] | > 20000 nM | – | 687 nM

Results, then the compound that gave them:

IC50 (CDK9/CycT1) | IC50 [1] | IC50 [2] | SMILES
> 20000 nM | 6.2 nM | 18.2 nM | FC(F)n1cc(-c2cnn3c(NCc4nc5cc(Cl)c(Cl)cc5[nH]4)nc(N4CCOCC4)nc23)cn1 [Example 423, N-[(5,6-dichloro-1H-benzimidazol-2-yl)methyl]-8-[1-(difluoromethyl)-1H-pyrazol-4-yl]-2-(morpholin-4-yl)pyrazolo[1,5-a][1,3,5]triazin-4-amine]
> 20000 nM | 0.738 nM | 6.38 nM | Fc1ccc2[nH]c(CNc3nc(N4CCOCC4)nc4c(-c5cncs5)cnn34)nc2c1F.O=C(O)C(F)(F)F [Example 442, trifluoroacetic acid N-[(4,5-difluoro-1H-benzimidazol-2-yl)methyl]-2-(morpholin-4-yl)-8-(1,3-thiazol-5-yl)pyrazolo[1,5-a][1,3,5]triazin-4-amine]
> 20000 nM | – | 986 nM | COc1cccc2nc(CNc3nc(N4CCN(C)CC4)nc4c(-c5nccs5)cnn34)[nH]c12 [Example 416, N-[(7-methoxy-1H-benzimidazol-2-yl)methyl]-2-(4-methylpiperazin-1-yl)-8-(1,3-thiazol-2-yl)pyrazolo[1,5-a][1,3,5]triazin-4-amine]
> 20000 nM | 2.21 nM | 6.17 nM | Clc1cc2nc(CNc3nc(N4CCOCC4)nc4c(-c5cncs5)cnn34)[nH]c2cc1Cl [Example 443, N-[(5,6-dichloro-1H-benzimidazol-2-yl)methyl]-2-(morpholin-4-yl)-8-(1,3-thiazol-5-yl)pyrazolo[1,5-a][1,3,5]triazin-4-amine]
> 20000 nM | – | 180 nM | COc1cccc2nc(CNc3nc(N4CCOCC4)nc4c(-c5ccnnc5)cnn34)[nH]c12.O=C(O)C(F)(F)F [Example 439, trifluoroacetic acid N-[(7-methoxy-1H-benzimidazol-2-yl)methyl]-2-(morpholin-4-yl)-8-(pyridazin-4-yl)pyrazolo[1,5-a][1,3,5]triazin-4-amine]
> 20000 nM | – | 246 nM | Cn1cc(-c2cnn3c(NCc4nc5c(F)c(F)ccc5[nH]4)nc(N4CCOCC4)nc23)cn1 [Example 418, N-[(4,5-difluoro-1H-benzimidazol-2-yl)methyl]-8-(1-methyl-1H-pyrazol-4-yl)-2-(morpholin-4-yl)pyrazolo[1,5-a][1,3,5]triazin-4-amine]
> 20000 nM | – | 73.7 nM | Clc1cc2nc(CNc3nc(N4CCOCC4)nc4c(-c5cscn5)cnn34)[nH]c2cc1Cl [Example 424, N-[(5,6-dichloro-1H-benzimidazol-2-yl)methyl]-2-(morpholin-4-yl)-8-(1,3-thiazol-4-yl)pyrazolo [1,5-a][1,3,5]triazin-4-amine]
> 20000 nM | – | 584 nM | CN1CCN(c2nc(NCc3nc4c(F)c(F)ccc4[nH]3)n3ncc(-c4nccs4)c3n2)CC1 [Example 415, N-[(4,5-difluoro-1H-benzimidazol-2-yl)methyl]-2-(4-methylpiperazin-1-yl)-8-(1,3-thiazol-2-yl)pyrazolo[1,5-a][1,3,5]triazin-4-amine]
> 20000 nM | – | 525 nM | CN1CCN(c2nc(NCc3nc4cc(Cl)c(Cl)cc4[nH]3)n3ncc(-c4cnn(C)c4)c3n2)CC1 [Example 420, N-[(5,6-dichloro-1H-benzimidazol-2-yl)methyl]-2-(4-methylpiperazin-1-yl)-8-(1-methyl-1H-pyrazol-4-yl)pyrazolo[1,5-a][1,3,5]triazin-4-amine]
> 20000 nM | – | 416 nM | CN1CCN(c2nc(NCc3nc4ccccc4[nH]3)n3ncc(CC(F)(F)F)c3n2)CC1 [Example 436, N-[(1H-benzimidazol-2-yl)methyl]-2-(4-methylpiperazin-1-yl)-8-(2,2,2-trifluoroethyl)pyrazolo [1,5-a][1,3,5]triazin-4-amine]
> 20000 nM | – | 228 nM | Cn1cc(-c2cnn3c(NCc4nc5cc(Cl)c(Cl)cc5[nH]4)nc(N4CCOCC4)nc23)cn1 [Example 419, N-[(5,6-dichloro-1H-benzimidazol-2-yl)methyl]-8-(1-methyl-1H-pyrazol-4-yl)-2-(morpholin-4-yl)pyrazolo[1,5-a][1,3,5]triazin-4-amine]
> 20000 nM | – | 174 nM | CN1CCN(c2nc(NCc3nc4ccccc4[nH]3)n3ncc(C4CC4(F)F)c3n2)CC1 (centres unmarked) [Example 428, N-(1H-benzimidazol-2-ylmethyl)-8-(2,2-difluorocyclopropyl)-2-(4-methylpiperazin-1-yl)pyrazolo[1,5-a][1,3,5]triazin-4-amine]
> 20000 nM | – | 283 nM | O=C(O)C(F)(F)F.c1ccc2[nH]c(CNc3nc(N4CCOCC4)nc4c(-c5ccnnc5)cnn34)nc2c1 [Example 438, trifluoroacetic acid N-[(1H-benzimidazol-2-yl)methyl]-2-(morpholin-4-yl)-8-(pyridazin-4-yl)pyrazolo[1,5-a][1,3,5]triazin-4-amine]
